For one compound, IC50 results are on record in BindingDB's records for doi:10.1073/pnas.0707365104 (Institut National De La Sant&#163, 2007).

This assay is described as follows: Inhibition of human telomerase expressed in HEK293T cells treated after telomerase elongation by telomeric repeat amplification protocol assay.

The term IC50 denotes the concentration that gives 50% inhibition.

Turning to `CN(C)c1ccc(Nc2c3ccc(NC(=O)CCN4CCCC4)cc3nc3cc(NC(=O)CCN4CCCC4)ccc23)cc1` [N,N'-(9-{[4-(dimethylamino)phenyl]amino}acridine-3,6-diyl)bis(3-pyrrolidin-1-ylpropanamide)], the midpoint of inhibition, the IC50, lay at 65 nM.
